Molecules are shown by their SMILES.

The subject of assay [1] is OVCAR-3 cells. Briefly: Cell Titer-Glo anti-proliferation, OVCAR-3 cells. Format: cell-based. Conditions: 3 days, read-out: Anti-proliferative activity OVCAR-3 (IC50 class). As to the method: (§1) A. Evaluation of the Anti-Proliferative Effect of Compounds on BxPC3, HT-29 and OVCAR-3 Cells by the Cell Titer-Glo Method
(§2) Compound solutions of different concentration gradients were prepared. […] The cell growth group without compound was used as a positive control (maximum signal control) and the medium was used as a negative control (minimum signal control), while ensuring that the final level of DMSO in each reaction well was 0.2%. After removing the medium from the 384-well plate, 25 μl of the configured compound at different concentrations was transferred into the well plate and the compound and cells were incubated in the cell incubator at 37° C. with 5% CO2 for 3 days.
(§3) The 384-well plates were removed from the cell incubator and allowed to equilibrate for 1 h to room temperature. 25 μl of Cell Titer-Glo assay was added to each well, lysed on a shaker for 2 min and then read out (Luminescence) using a BMG PHERAStar after 10 min incubation. Calculate the inhibition rate from the luminescence signal.
(§4) to calculate the rate of inhibition of the cells by different concentrations of the compounds. The IC50 of the compound on cell activity inhibition was calculated by fitting a log(inhibitor) vs. response-Variable slope model to GraphPad Prism 6. The fitted equation was: Y=Bottom+(Top-Bottom)/(1+10^((Log IC50−X)*HillSlope)), where Y represents the rate of inhibition and X represents the concentration of the known compound after Log.
A general note: Cellular ATP, detected with luciferase, serves as a proxy for viable cell number.

Assay [2] deals with Wee1 protein (Homo sapiens (Human), UniProt P30291). The experiment in a line: TR-FRET binding of compound to Wee1 protein and Tracer 178. The note with it: Tracer 178, read-out: IC50, inhibitory activity against Wee1 kinase. As to the method: First, solutions of the compounds in different concentration gradients were prepared. The compounds were dissolved in DMSO and the compounds were diluted 4 folds with a total of 10 dose points and 2 parallel replicates for each concentration.
Wee1 protein, sequence (P30291 whole entry): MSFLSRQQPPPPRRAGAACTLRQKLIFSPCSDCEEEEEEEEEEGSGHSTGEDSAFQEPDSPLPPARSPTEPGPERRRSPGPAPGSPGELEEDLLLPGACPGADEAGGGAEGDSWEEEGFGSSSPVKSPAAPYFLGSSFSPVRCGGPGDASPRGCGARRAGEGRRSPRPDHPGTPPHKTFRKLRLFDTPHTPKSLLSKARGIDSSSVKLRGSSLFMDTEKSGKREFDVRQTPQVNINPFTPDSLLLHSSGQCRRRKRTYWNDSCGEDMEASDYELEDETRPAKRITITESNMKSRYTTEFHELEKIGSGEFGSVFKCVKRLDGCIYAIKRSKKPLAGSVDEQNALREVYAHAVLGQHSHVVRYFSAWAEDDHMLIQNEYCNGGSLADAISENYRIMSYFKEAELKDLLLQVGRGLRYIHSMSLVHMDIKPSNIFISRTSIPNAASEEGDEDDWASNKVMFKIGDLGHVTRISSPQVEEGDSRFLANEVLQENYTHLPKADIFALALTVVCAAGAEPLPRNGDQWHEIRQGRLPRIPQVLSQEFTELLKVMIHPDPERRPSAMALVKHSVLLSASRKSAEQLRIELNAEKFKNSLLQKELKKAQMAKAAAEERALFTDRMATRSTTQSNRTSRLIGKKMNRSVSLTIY
The IC50 for inhibition of enzyme activity by the compounds was then calculated using GraphPad Prism 6 and fitted with a log (inhibitor) vs. response-Variable slope mode. The fitting equation was: Y=Bottom+(Top−Bottom)/(1+10^((Log IC50−X)*HillSlope)), where Y represents the percentage of residual enzyme activity known and X represents the known concentration of compound after the logarithm.
Background: TR-FRET usually uses a lanthanide donor and a delayed reading to cut background.

Assay [3] relates to HT-29 cells. Briefly: Cell Titer-Glo anti-proliferation, HT-29 cells. It counts as cell-based, human. Conditions: 3 days, read-out: Anti-proliferative activity HT-29 (IC50 class). The method, then:
as §1, §2, §3, §4

In assay [4] the test system is BxPC3 cells. The experiment in a line: Cell Titer-Glo anti-proliferation, BxPC3 cells. The note with it: 3 days, read-out: Anti-proliferative activity BxPC3 (IC50 class). It counts as cell-based, human. As to the method: as §1, §2, §3, §4

The term IC50 denotes the concentration that gives 50% inhibition. Take `C=CCn1c(=O)c2cnc(Nc3ccc(N4CCC5(CCN(C)CC5)CC4)cc3)nc2n1-c1ccc2c(n1)[C@@H](O)C1(CC2)CC1` [Compound 37a]: the concentration for half-maximal inhibition (IC50) in assay [1] lay within 100 to 1000 nM; in assay [2] it was 5 to 10 nM; in assay [3] it was 100 to 1000 nM; in assay [4] it was 100 to 1000 nM.
As to `C=CCn1c(=O)c2cnc(Nc3ccc(N4CCN(C)CC4)cc3)nc2n1-c1ccc2c3c(n(CC)c2n1)OCCC3` [Compound 17], the IC50 is 100 to 1000 nM in assay [1], at most 5 nM in assay [2], 100 to 1000 nM in assay [3] and 1000 to 2000 nM in assay [4].
As for `C=CCn1c(=O)c2cnc(Nc3ccc(N4CCN(C)CC4)cc3)nc2n1-c1ccc2c(n1)[C@@](C)(O)C1(CC2)CC1` [Compound 6a], the IC50 in assay [1] is 100 to 1000 nM; in assay [2] it was at most 5 nM; in assay [3] it was 100 to 1000 nM; in assay [4], 1000 to 2000 nM.
Turning to `C=CCn1c(=O)c2cnc(Nc3ccc(N4CCN(C)CC4)c(C)c3)nc2n1-c1ccc2c(n1)[C@@](C)(O)C1(CC2)CC1` (single isomer, unassigned) [Compound 23a], the half-maximal inhibitory concentration (IC50) was 100 to 1000 nM in assay [1], at most 5 nM in assay [2], 100 to 1000 nM in assay [3] and 100 to 1000 nM in assay [4].
As for `C=CCn1c(=O)c2cnc(Nc3ccc(N4CCN(C)[C@@H](C)C4)cc3)nc2n1-c1ccc2c(n1)C(O)(CC)C1(CC1)C2` (stereo partly drawn) [Compound 30], the IC50 in assay [1] was 1000 to 2000 nM; in assay [2] it was at most 5 nM; in assay [3] it was 100 to 1000 nM; in assay [4], 1000 to 2000 nM.
As for `C=CCn1c(=O)c2cnc(Nc3ccc(N4CCC5(CCN(C)CC5)CC4)cc3)nc2n1-c1ccc2c(n1)[C@H](O)C1(CC2)CC1` [Compound 38b], the IC50 in assay [1] is 100 to 1000 nM; in assay [2], 5 to 10 nM; in assay [3] it was 100 to 1000 nM; in assay [4], 100 to 1000 nM.
With `C=CCn1c(=O)c2cnc(Nc3ccc(N4CCN(C)CC4)cc3)nc2n1-c1ccc2c(n1)C(O)C1(CC2)CC1` (stereo not drawn) [Compound 4], the IC50 was 1000 to 2000 nM in assay [1], at most 5 nM in assay [2], 100 to 1000 nM in assay [3] and 1000 to 2000 nM in assay [4].
In the case of `C=CCn1c(=O)c2cnc(Nc3ccc(N4CCN(C)CC4)cc3)nc2n1-c1ccc2c(n1)N(CC)C(=O)C21CCC1` [Compound 2], the concentration for half-maximal inhibition (IC50) in assay [2] was in the range of 10 to 100 nM; in assay [3], 1000 to 2000 nM; in assay [4] it was 2000 to 5000 nM.
Take `C=CCn1c(=O)c2cnc(Nc3ccc(N4CCN(C)CC4)cc3)nc2n1-c1ccc2c(c1)N(CC)C(=O)C21CC1` [Compound 1]: the IC50 in assay [2] lay in the range of 10 to 100 nM; in assay [3], 1000 to 2000 nM; in assay [4] it was 5000 to 10000 nM.
As for `C=CCn1c(=O)c2cnc(Nc3ccc(N4CCN(C)CC4)cc3)nc2n1-c1ccc2c(n1)[C@@H](O)C1(CC2)CC1` (single isomer, unassigned) [Compound 4a], the IC50 is 2000 to 5000 nM in assay [1], at most 5 nM in assay [2], 1000 to 2000 nM in assay [3] and 2000 to 5000 nM in assay [4].
For the molecule `C=CCn1c(=O)c2cnc(Nc3ccc(N4CCN(C)CC4)cc3)nc2n1-c1ccc2c(c1)C(O)(CC)C1(CC1)C2` (racemic) [Compound 29], the IC50 was in the range of 100 to 1000 nM in assay [1], 1000 to 2000 nM in assay [3] and 2000 to 5000 nM in assay [4].
In the case of `C=CCn1c(=O)c2cnc(Nc3ccc(N4CC5CC(C4)N5C(C)C)cc3)nc2n1-c1ccc2c(n1)[C@](O)(CC)C1(CC2)CC1` (single isomer, unassigned) [Compound 36b], the concentration for half-maximal inhibition (IC50) in assay [1], in assay [3] and in assay [4] was 100 to 1000 nM each time.
As to `C=CCn1c(=O)c2cnc(Nc3ccc(N4CCC(N(C)C)CC4)cc3)nc2n1-c1ccc2c(n1)C(C)(O)C1(CC2)CC1` (stereo not drawn) [Compound 65b], the IC50 in assay [1], in assay [3] and in assay [4] was 100 to 1000 nM in each case.
Regarding `C=CCn1c(=O)c2cnc(Nc3ccc(N4CCC5(CCN(C)CC5)CC4)cc3)nc2n1-c1ccc2c(n1)C(O)(CC)C1(CC1)C2` (racemic) [Compound 27], the IC50 in assay [1], in assay [3] and in assay [4] was 100 to 1000 nM in each case.
As to `C=CCn1c(=O)c2cnc(Nc3ccc(N4CCN(C)CC4)c(CO)c3)nc2n1-c1ccc2c(n1)C(C)(O)C1(CC1)C2` (racemic) [Compound 19], the IC50 in assay [1], in assay [3] and in assay [4] was 2000 to 5000 nM in each case.
For `C=CCn1c(=O)c2cnc(Nc3ccc(N4CC5CC(C4)N5C(C)=O)cc3)nc2n1-c1ccc2c(n1)[C@@](C)(O)C1(CC2)CC1` (single isomer, unassigned) [Compound 50a], the IC50 in assay [1], in assay [3] and in assay [4] was 100 to 1000 nM in each case.
Regarding `C=CCn1c(=O)c2cnc(Nc3ccc(N4CCN(C)[C@H](C)C4)cc3)nc2n1-c1ccc2c(n1)[C@@H](O)C1(CC2)CC1` (single isomer, unassigned) [Compound 68a], the IC50 was 2000 to 5000 nM in assay [1], 1000 to 2000 nM in assay [3] and 2000 to 5000 nM in assay [4].
Take `C=CCn1c(=O)c2cnc(Nc3ccc4c(c3)CN(C)CC4(C)C)nc2n1-c1ccc2c(n1)C(C)(O)C1(CC1)C2` (racemic) [Compound 9]: the IC50 in assay [1] was 100 to 1000 nM; in assay [3], 1000 to 2000 nM; in assay [4], above 10000 nM.
In the case of `C=CCn1c(=O)c2cnc(Nc3ccc(N4CCC5(CCN(C)CC5)CC4)cc3)nc2n1-c1ccc2c(n1)[C@@H](O)C1(CC2)CC1` [Compound 38a], the figures for the IC50 in assay [1], in assay [3] and in assay [4] were 1000 to 2000 nM, 100 to 1000 nM and 1000 to 2000 nM, respectively.
Consider `C=CCn1c(=O)c2cnc(Nc3ccc(N4CC5CCC(C4)N5C)cc3)nc2n1-c1ccc2c(n1)C(O)(CC)C1(CC1)C2` (racemic) [Compound 25], for which the half-maximal inhibitory concentration (IC50) lay within 100 to 1000 nM in assay [1], 1000 to 2000 nM in assay [3] and 1000 to 2000 nM in assay [4].
Take `C=CCn1c(=O)c2cnc(Nc3ccc(N4CCN(C)[C@H](C)C4)cc3)nc2n1-c1ccc2c(n1)C(O)(CC)C1(CC1)C2` (stereo partly drawn) [Compound 40]: the values for the IC50 in assay [1], in assay [3] and in assay [4] were 100 to 1000 nM, 100 to 1000 nM and 1000 to 2000 nM, respectively.
Take `C=CCn1c(=O)c2cnc(Nc3ccc(N4CC5CC(C4)N5C)c(C)c3)nc2n1-c1ccc2c(n1)C(O)C1(CC2)CC1` (stereo not drawn) [Compound 67]: the IC50 in assay [1], in assay [3] and in assay [4] was 1000 to 2000 nM in each case.
Take `C=CCn1c(=O)c2cnc(Nc3ccc(N4C[C@H]5CN(C)C[C@H]5C4)cc3)nc2n1-c1ccc2c(n1)[C@H](O)C1(CC2)CC1` (single isomer, unassigned) [Compound 63b]: the IC50 was in the range of 1000 to 2000 nM in assay [1], 100 to 1000 nM in assay [3] and 1000 to 2000 nM in assay [4].
In the case of `C=CCn1c(=O)c2cnc(Nc3ccc(N4CCN(C)CC4)c(C)c3)nc2n1-c1ccc2c(n1)C(C)(O)C1(CC2)CC1` (racemic) [Compound 8], the IC50 was in the range of 1000 to 2000 nM in assay [1], 100 to 1000 nM in assay [3] and 1000 to 2000 nM in assay [4].
On to `C=CCn1c(=O)c2cnc(Nc3ccc(N4CC5CC(C4)N5CC)cc3)nc2n1-c1ccc2c(n1)[C@](C)(O)C1(CC2)CC1` (single isomer, unassigned) [Compound 51a], for which the IC50 in assay [1] is 100 to 1000 nM; in assay [2], at most 5 nM; in assay [3] it was 100 to 1000 nM; in assay [4] it was 100 to 1000 nM.
Turning to `C=CCn1c(=O)c2cnc(Nc3ccc(N4CCC(N(C)C)C(F)C4)cc3)nc2n1-c1ccc2c(n1)C(C)(O)C1(CC2)CC1` (single isomer, unassigned) [Compound 60b], the IC50 in assay [1], in assay [3] and in assay [4] was 100 to 1000 nM each time.
In the case of `C=CCn1c(=O)c2cnc(Nc3ccc(N4CC5CC(C4)N5C)cc3)nc2n1-c1ccc2c(n1)[C@](O)(CC)C1(CC2)CC1` (single isomer, unassigned) [Compound 64a], the IC50 in assay [1], in assay [3] and in assay [4] was 100 to 1000 nM throughout.
On to `C=CCn1c(=O)c2cnc(Nc3ccc(N4CCN(C)CC4)c(C)c3)nc2n1-c1ccc2c(n1)[C@](C)(O)C1(CC2)CC1` (single isomer, unassigned) [Compound 23b], for which the IC50 in assay [1], in assay [3] and in assay [4] was 100 to 1000 nM throughout.
